These are literature values, as cited in patent publication US6826488B1, “Crystals, molecular complexes, and methods of developing lead compounds for inhibitors of bacterial IMPDH” (The University of Chicago, priority 2000, dated 2004).

SMILES strings stand for the structures.

The subject of one series is mammalian IMPDH enzymes. To be noted: mammalian relative to bacterial IMPDH enzymes.
The target of the next series is bacterial IMPDH enzymes. To be noted: bacterial enzymes inhibited by MPA only at very high concentrations.

As usually defined, the Ki is a dissociation constant, usually derived from enzyme kinetics or from competition with a known ligand. `COc1c(C)c2c(c(O)c1C/C=C(\C)CCC(=O)O)C(=O)OC2` [MPA, Mycophenolic acid]: the “times more sensitive to inhibition (mammalian vs bacterial IMPDH enzymes)” value in the series on mammalian IMPDH enzymes is given as 10-100 times. Moreover, the Ki on bacterial IMPDH enzymes is > 500 µM.
